Assay results from ChEMBL document CHEMBL1129517, “Pyrazolo[4,3-e]-1,2,4-triazolo[1,5-c]pyrimidine derivatives: potent and selective A(2A) adenosine antagonists” (J Med Chem, 1996).

Assays:
Adenosine receptor A2a = Adenosine receptor A2a (Rattus norvegicus, UniProt P30543)
Description: Inhibition of [3H]-CGS- 21680 binding to Adenosine A2A receptor in rat striatal homogenates.

Adenosine receptor A1 = biological target: T1, Adenosine receptor A1 (Rattus norvegicus, UniProt P25099); assay: biochemical
T1 sequence (P25099 whole entry): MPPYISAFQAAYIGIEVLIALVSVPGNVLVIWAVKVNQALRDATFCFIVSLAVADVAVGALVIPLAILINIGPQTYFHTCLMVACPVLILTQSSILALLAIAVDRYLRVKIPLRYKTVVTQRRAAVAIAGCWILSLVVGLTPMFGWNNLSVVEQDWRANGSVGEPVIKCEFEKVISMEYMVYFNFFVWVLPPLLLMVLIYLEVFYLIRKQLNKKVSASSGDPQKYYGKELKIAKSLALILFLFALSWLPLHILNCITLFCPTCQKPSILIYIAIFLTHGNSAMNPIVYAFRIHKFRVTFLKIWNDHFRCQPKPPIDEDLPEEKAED
Description: Inhibition of [3H]-CHA binding to Adenosine A1 receptor in rat whole brain homogenates.

[1] = system: Adenosine receptor A2a (Oryctolagus cuniculus)

Chain of Adenosine receptor A2a (P30543 whole entry): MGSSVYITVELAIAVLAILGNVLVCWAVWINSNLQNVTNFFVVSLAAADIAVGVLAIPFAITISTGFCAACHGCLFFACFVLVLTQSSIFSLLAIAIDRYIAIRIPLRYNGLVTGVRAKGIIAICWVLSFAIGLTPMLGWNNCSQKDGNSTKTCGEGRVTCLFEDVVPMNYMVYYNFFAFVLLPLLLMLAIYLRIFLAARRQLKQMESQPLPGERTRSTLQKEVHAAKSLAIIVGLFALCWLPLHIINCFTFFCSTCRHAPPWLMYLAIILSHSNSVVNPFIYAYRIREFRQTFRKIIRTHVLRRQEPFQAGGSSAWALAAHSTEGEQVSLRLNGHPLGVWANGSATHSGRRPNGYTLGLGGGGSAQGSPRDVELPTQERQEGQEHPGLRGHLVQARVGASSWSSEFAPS

SMILES	Ki (Adenosine receptor A2a) [nM]	Ki (Adenosine receptor A1) [nM]	ED50 [1] [nM]
CC(C)(C)n1ncc2c1nc(N)n1nc(-c3ccco3)nc21	260	430	–
Nc1nc2n[nH]cc2c2nc(-c3ccco3)nn12	22.6	210	–
Nc1nc2c(cnn2Cc2ccc(F)cc2)c2nc(-c3ccco3)nn12	12	189	10600
Nc1nc2nn(Cc3ccc(F)cc3)cc2c2nc(-c3ccco3)nn12	–	–	4
Nc1nc2c(cnn2CCO)c2nc(-c3ccco3)nn12	77.7	–	–
CCCCn1ncc2c1nc(N)n1nc(-c3ccco3)nc21	–	–	300
OCCn1ncc2c1nc(NCc1ccccc1)n1nc(-c3ccco3)nc21	166	330	–
CC(C)Cc1ccc(CCn2ncc3c2nc(N)n2nc(-c4ccco4)nc32)cc1	22	> 3000	< 1000
Nc1nc2c(cnn2CCCCc2ccccc2)c2nc(-c3ccco3)nn12	21	2710	–
Nc1nc2c(cnn2CCN2CCOCC2)c2nc(-c3ccco3)nn12	5.6	471	30
Nc1nc2c(cnn2CCCc2ccccc2)c2nc(-c3ccco3)nn12 [SCH-63390]	2.4	504	–
CCC(C)Cn1ncc2c1nc(N)n1nc(-c3ccco3)nc21 (centres undefined)	12	116	–
Nc1nc2c(cnn2CCOCc2ccccc2)c2nc(-c3ccco3)nn12	> 1000	> 1000	–
Nc1nc2c(cnn2-c2ccccc2)c2nc(-c3ccco3)nn12	22.7	119	> 1000
